Experimental data: patent US20230055237A1, “COMPOUNDS AND METHODS FOR THE TREATMENT OF CYSTIC FIBROSIS” (Flatley Discovery Lab, LLC, priority 2019, published 2023)

Molecular target: T1, CFTR (Homo sapiens, UniProt P13569, DEL508-508)
T1 construct: Primary CF airway epithelial cells were obtained from the UNC Cystic Fibrosis Tissue Procurement and Cell Culture Core; host or cells: primary CF airway epithelial cells, differentiated at the air-liquid interface
Assay: Equivalent current assay in primary CF airway epithelial cells (NAUC, combination with 1st site corrector FDL169 or VX-809)
Format: cell-based
Details: 37° C., 24 h

[1] = test compound 1 μM in combination with 1st site corrector VX-809 (3 μM)
[2] = test compound 3 μM in combination with 1st site corrector VX-809 (3 μM)
[3] = test compound 10 μM in combination with 1st site corrector VX-809 (3 μM)
[4] = test compound 1 μM in combination with 1st site corrector FDL169 (3 μM)
[5] = test compound 3 μM in combination with 1st site corrector FDL169 (3 μM)
[6] = test compound 10 μM in combination with 1st site corrector FDL169 (3 μM)

T1 sequence (P13569 with tags, fused parts or gaps DEL508-508): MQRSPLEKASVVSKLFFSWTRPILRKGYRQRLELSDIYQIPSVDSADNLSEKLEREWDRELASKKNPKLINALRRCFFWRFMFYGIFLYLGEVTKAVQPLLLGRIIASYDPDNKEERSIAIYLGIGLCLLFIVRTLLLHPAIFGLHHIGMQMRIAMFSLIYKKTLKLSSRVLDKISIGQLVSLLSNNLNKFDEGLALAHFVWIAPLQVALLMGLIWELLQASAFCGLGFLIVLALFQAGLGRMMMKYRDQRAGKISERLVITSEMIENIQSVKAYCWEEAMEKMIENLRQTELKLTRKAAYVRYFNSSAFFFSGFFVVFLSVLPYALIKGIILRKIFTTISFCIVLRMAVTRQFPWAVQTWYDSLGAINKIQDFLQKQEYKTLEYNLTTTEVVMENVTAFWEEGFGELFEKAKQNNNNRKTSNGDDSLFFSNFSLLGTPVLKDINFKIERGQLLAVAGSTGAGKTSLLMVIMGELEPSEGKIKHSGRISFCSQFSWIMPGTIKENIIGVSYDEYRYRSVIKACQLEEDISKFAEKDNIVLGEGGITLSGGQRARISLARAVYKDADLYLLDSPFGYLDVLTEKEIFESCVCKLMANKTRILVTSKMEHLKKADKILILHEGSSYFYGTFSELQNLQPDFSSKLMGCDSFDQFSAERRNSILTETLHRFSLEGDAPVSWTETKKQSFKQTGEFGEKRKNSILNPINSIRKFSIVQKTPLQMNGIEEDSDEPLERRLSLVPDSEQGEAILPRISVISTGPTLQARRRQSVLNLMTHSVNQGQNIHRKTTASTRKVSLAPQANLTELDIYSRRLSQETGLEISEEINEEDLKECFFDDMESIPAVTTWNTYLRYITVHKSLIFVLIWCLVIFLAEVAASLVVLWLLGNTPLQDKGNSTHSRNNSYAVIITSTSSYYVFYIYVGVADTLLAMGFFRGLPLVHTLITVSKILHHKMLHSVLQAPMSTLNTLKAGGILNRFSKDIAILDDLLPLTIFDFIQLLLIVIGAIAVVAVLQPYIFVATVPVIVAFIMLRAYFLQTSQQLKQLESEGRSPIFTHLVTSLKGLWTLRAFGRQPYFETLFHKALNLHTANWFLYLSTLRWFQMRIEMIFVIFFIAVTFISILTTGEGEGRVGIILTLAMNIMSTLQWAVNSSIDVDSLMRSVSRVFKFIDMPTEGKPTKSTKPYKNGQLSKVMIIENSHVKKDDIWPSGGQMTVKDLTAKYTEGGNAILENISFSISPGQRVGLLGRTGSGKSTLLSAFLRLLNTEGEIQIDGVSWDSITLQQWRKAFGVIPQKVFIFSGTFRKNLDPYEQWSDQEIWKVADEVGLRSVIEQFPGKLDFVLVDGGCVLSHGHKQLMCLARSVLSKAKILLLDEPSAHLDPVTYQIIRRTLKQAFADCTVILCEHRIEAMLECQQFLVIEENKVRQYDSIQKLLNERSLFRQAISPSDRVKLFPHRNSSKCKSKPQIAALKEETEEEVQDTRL

| Compound | Nauc @ 1 μM [1] | Nauc @ 3 μM [2] | Nauc @ 10 μM [3] | Nauc @ 1 μM [4] | Nauc @ 3 μM [5] | Nauc @ 10 μM [6] |
| --- | --- | --- | --- | --- | --- | --- |
| NNC(=O)[C@H]1[C@@H](C(=O)Nc2cc(Cl)cc(Cl)c2)[C@H]2CCCN2C12C(=O)Nc1c(Cl)cc(Cl)cc12 (stereo partly drawn) [Example 236, (1′R,2′S,7a′R)-5,7-dichloro-N-(3,5-dichlorophenyl)-2′-(hydrazinecarbonyl)-2-oxo-1′,2′,5′,6′,7′,7a′-hexahydrospiro[indoline-3,3′-pyrrolizine]-1′-carboxamide] | + (NAUC “+” refers to an observed NAUC <140% of positive control) | ++ (NAUC “++” refers to an observed NAUC 170-140% of positive control) | +++ (NAUC “+++” refers to an observed NAUC>170% of positive control) | – | – | – |
| O=C(Nc1cncc(C(F)(F)F)n1)C1C2C[C@@](O)(C(F)(F)F)CN2C2(C(=O)Nc3c(Cl)cc(Cl)cc32)C1C(=O)O (single isomer, unassigned) [Example 75.a] | – | – | + (NAUC “+” refers to an observed NAUC <140% of positive control) | – | – | – |
| O=C(Nc1ccc2ccccc2c1)[C@H]1[C@H]2CC(F)(F)CN2[C@]2(C(=O)Nc3c(Cl)cc(Cl)cc32)[C@H]1C(=O)O [Example 115] | + (NAUC “+” refers to an observed NAUC <140% of positive control) | + (NAUC “+” refers to an observed NAUC <140% of positive control) | + (NAUC “+” refers to an observed NAUC <140% of positive control) | – | – | – |
| C[C@]1(O)CC2C(C(=O)Nc3cc(Cl)c(OC(F)F)c(Cl)c3)C(C(=O)O)C3(C(=O)Nc4c(Cl)cc(Cl)cc43)N2C1 (stereo partly drawn) [Example 4] | – | +++ (NAUC “+++” refers to an observed NAUC>170% of positive control) | +++ (NAUC “+++” refers to an observed NAUC>170% of positive control) | – | – | – |
| Cn1cc(N(CC2CC2)C(=O)[C@H]2[C@H]3CC(F)(F)CN3[C@]3(C(=O)Nc4c(Cl)cc(Cl)cc43)[C@H]2C(=O)O)c(C#N)n1 [Example 168] | – | – | – | + (NAUC “+” refers to an observed NAUC <140% of positive control) | + (NAUC “+” refers to an observed NAUC <140% of positive control) | – |
| CC(C)(C)CN(C(=O)[C@H]1[C@@H](C(=O)O)[C@]2(C(=O)Nc3c(Cl)cc(Cl)cc32)N2CC(F)(F)C[C@@H]12)c1cc(Cl)cc(Cl)c1 [Example 111, (1′S,2′R,3S,7a′S)-5,7-dichloro-1-((3,5-dichlorophenyl)(neopentyl)carbamoyl)-6′,6′-difluoro-2-oxo-1′,2′,5′,6′,7′,7a′-hexahydrospiro[indoline-3,3′-pyrrolizine]-2′-carboxylic acid] | – | – | – | + (NAUC “+” refers to an observed NAUC <140% of positive control) | ++ (NAUC “++” refers to an observed NAUC 170-140% of positive control) | – |
| O=C(Nc1cc(Cl)cc(Cl)c1)C1C(C(F)(F)c2cccc(C(F)(F)F)c2)NC2(C(=O)Nc3c(Cl)cc(Cl)cc32)C1C(=O)O (stereo not drawn) [Example 70.c] | + (NAUC “+” refers to an observed NAUC <140% of positive control) | + (NAUC “+” refers to an observed NAUC <140% of positive control) | +++ (NAUC “+++” refers to an observed NAUC>170% of positive control) | – | – | – |
| CN(C(=O)[C@H]1[C@H]2CC(F)(F)CN2[C@]2(C(=O)Nc3c(Cl)cc(Cl)cc32)[C@H]1C(=O)O)c1cccc(C(F)(F)F)n1 [Example 114] | +++ (NAUC “+++” refers to an observed NAUC>170% of positive control) | ++ (NAUC “++” refers to an observed NAUC 170-140% of positive control) | +++ (NAUC “+++” refers to an observed NAUC>170% of positive control) | – | – | – |
| CN(O)C(=O)C1C(C(=O)Nc2cc(Cl)cc(Cl)c2)C2CC(F)(F)CN2C12C(=O)Nc1c(Cl)cc(Cl)cc12 (single isomer, unassigned) [Example 225a, 5,7-dichloro-N1′-(3,5-dichlorophenyl)-6′,6′-difluoro-N2′-hydroxy-N2′-methyl-2-oxo-1′,2′,5′,6′,7′,7a′-hexahydrospiro[indoline-3,3′-pyrrolizine]-1′,2′-dicarboxamide] | + (NAUC “+” refers to an observed NAUC <140% of positive control) | + (NAUC “+” refers to an observed NAUC <140% of positive control) | +++ (NAUC “+++” refers to an observed NAUC>170% of positive control) | – | – | – |
| Cn1cnc2cc(NC(=O)[C@H]3[C@H]4CC(F)(F)CN4[C@]4(C(=O)Nc5c(Cl)cc(Cl)cc54)[C@H]3C(=O)O)ccc21 [Example 146] | – | – | – | + (NAUC “+” refers to an observed NAUC <140% of positive control) | + (NAUC “+” refers to an observed NAUC <140% of positive control) | – |
| CC(C)(C)CN(C(=O)[C@H]1[C@@H](C(=O)O)C2(C(=O)Nc3c(Cl)cc(Cl)cc32)N2CCC[C@@H]12)c1cc(Cl)cc(Cl)c1 (single isomer, unassigned) [Example 82.6a, (1′R,2′S,7a′R)-5,7-dichloro-1-((3,5-dichlorophenyl)(neopentyl)carbamoyl)-2-oxo-1′,2′,5′,6′,7′,7a′-hexahydrospiro[indoline-3,3′-pyrrolizine]-2′-carboxylic acid] | – | – | – | +++ (NAUC “+++” refers to an observed NAUC>170% of positive control) | ++ (NAUC “++” refers to an observed NAUC 170-140% of positive control) | – |
| O=C(O)[C@H]1[C@@H](C(=O)N(CC2CC2)c2ccccc2-c2ccccc2)[C@H]2CC(F)(F)CN2[C@]12C(=O)Nc1c(Cl)cc(Cl)cc12 [Example 180] | – | – | – | +++ (NAUC “+++” refers to an observed NAUC>170% of positive control) | +++ (NAUC “+++” refers to an observed NAUC>170% of positive control) | + (NAUC “+” refers to an observed NAUC <140% of positive control) |
| O=C(O)[C@H]1[C@@H](C(=O)N(CCO)c2cc(Cl)cc(Cl)c2)[C@H]2CC(F)(F)CN2[C@]12C(=O)Nc1c(Cl)cc(Cl)cc12 [Example 150] | – | – | – | + (NAUC “+” refers to an observed NAUC <140% of positive control) | +++ (NAUC “+++” refers to an observed NAUC>170% of positive control) | – |
| O=C(Nc1cc2ccccc2cn1)[C@H]1[C@H]2CC(F)(F)CN2[C@]2(C(=O)Nc3c(Cl)cc(Cl)cc32)[C@H]1C(=O)O [Example 119] | + (NAUC “+” refers to an observed NAUC <140% of positive control) | + (NAUC “+” refers to an observed NAUC <140% of positive control) | + (NAUC “+” refers to an observed NAUC <140% of positive control) | – | – | – |
| O=C(Nc1cc(Cl)cc(Cl)c1)C1C2CCCN2C2(C(=O)Nc3c(Cl)cc(Cl)cc32)C1C(=O)NO (single isomer, unassigned) [Example 234a, 5,7-dichloro-N1′-(3,5-dichlorophenyl)-N2′-hydroxy-2-oxo-1′,2′,5′,6′,7′,7a′-hexahydrospiro[indoline-3,3′-pyrrolizine]-1,2′-dicarboxamide] | ++ (NAUC “++” refers to an observed NAUC 170-140% of positive control) | ++ (NAUC “++” refers to an observed NAUC 170-140% of positive control) | ++ (NAUC “++” refers to an observed NAUC 170-140% of positive control) | – | – | – |
| COc1c(Cl)cc(N(C)C(=O)[C@H]2[C@H]3CC(F)(F)CN3[C@]3(C(=O)Nc4c(Cl)cc(Cl)cc43)[C@H]2C(=O)O)cc1Cl [Example 179] | – | – | – | ++ (NAUC “++” refers to an observed NAUC 170-140% of positive control) | ++ (NAUC “++” refers to an observed NAUC 170-140% of positive control) | +++ (NAUC “+++” refers to an observed NAUC>170% of positive control) |
| CN(C(=O)[C@H]1[C@H]2CC(F)(F)CN2[C@]2(C(=O)N(CC3CC3)c3c(Cl)cc(Cl)cc32)[C@H]1C(=O)O)c1cc(Cl)cc(Cl)c1 [Example 201] | – | – | – | + (NAUC “+” refers to an observed NAUC <140% of positive control) | + (NAUC “+” refers to an observed NAUC <140% of positive control) | – |
| CCC(=O)N1C(C(C)C)C(C(=O)Nc2cc(Cl)cc(Cl)c2)C(C(=O)O)C12C(=O)Nc1c(Cl)cc(Cl)cc12 (stereo not drawn) [Example 26] | – | ++ (NAUC “++” refers to an observed NAUC 170-140% of positive control) | +++ (NAUC “+++” refers to an observed NAUC>170% of positive control) | – | – | – |
| O=C(O)[C@H]1[C@@H](C(=O)N(CC2CC2)c2cc(Cl)cc(Cl)c2)[C@@H](C(F)(F)F)NC12C(=O)Nc1c(Cl)cc(Cl)cc12 (single isomer, unassigned) [Example 270b] | – | – | – | + (NAUC “+” refers to an observed NAUC <140% of positive control) | ++ (NAUC “++” refers to an observed NAUC 170-140% of positive control) | – |
| O=C(Nc1ccc2nccnc2c1)[C@H]1[C@H]2CC(F)(F)CN2[C@]2(C(=O)Nc3c(Cl)cc(Cl)cc32)[C@H]1C(=O)O [Example 147] | – | – | – | + (NAUC “+” refers to an observed NAUC <140% of positive control) | + (NAUC “+” refers to an observed NAUC <140% of positive control) | – |
| CN(C(=O)[C@H]1[C@@H](C(=O)O)[C@]2(C(=O)Nc3c(Cl)cc(Cl)cc32)N2CC(F)(F)C[C@@H]12)c1cc(Cl)cc(Cl)c1F (single isomer, unassigned) [Example 265a] | + (NAUC “+” refers to an observed NAUC <140% of positive control) | +++ (NAUC “+++” refers to an observed NAUC>170% of positive control) | +++ (NAUC “+++” refers to an observed NAUC>170% of positive control) | – | – | – |
